# Tests used:
# [1] = system: PTP activity in macrophages; test: PTP activity in macrophages co-cultured with cancer cells and stimulated with IFNγ/LPS or TLR agonists; assay type: cell-based; parameters: concentration or dose not given beside the values; conditions: induced by IFNγ/LPS or TLR agonists, with cancer cell ligation, 30 min, 37 °C
# Method: (§1) FIGS. 3A-3E depict modulation of SHP-1 activity in proinflammatory macrophages in cancer. Macrophages co-cultured with cancer cells were stimulated with IFNγ/LPS or TLR agonists (αTLR) comprising CpG, polycytidylic acid (i.e., PolyI:C) and R848 (each 0.4 μg/ml) for 30 min (37 °C) in the presence or the absence of different SHP-1 or SHP-2 inhibitor or activator, followed by cell lysis and assays of PTP activity. FIG. 3A depicts SHP-1 activity regulation mechanisms. […] FIG. 3E depicts that PKCθ negatively regulates SHP-1 activity at a moderate level.
# SHP-1 = SHP-1 activity in macrophages under proinflammatory stimulation and cancer cell ligation; assay type: cell-based; conditions: IFNγ/LPS stimulation, cancer cell ligation
# Method: (§2) FIGS. 2A-2G depict that the inhibition of SHP-1 enhances macrophage proinflammatory response, antigen presentation and phagocytosis in a tumor milieu. FIG. 2A and FIG. 2B depict that SHP-1 activity in macrophages is triggered by proinflammatory stimulation and the extracellular cancer cell ligation (“touching”) of macrophages (green bar in FIG. 2A). […] The SHP-2 inhibitor SHP099 (1 μg/ml) was used in assays. FIG. 2C depicts the inhibition of SHP-1 by TPI-1 dose-dependently recovers IFNγ/LPS-induced activation of STAT1 (p-STAT1) and Erk1/2 (p-Erk1/2) de-activated by SHP-1 (red line). FIG. 2D and FIG. 2E depict that the inhibition of SHP-1 in macrophages by TPI-1 enhances production of proinflammatory cytokines (FIG. 2D) and expression of immunogenic antigen presentation machinery (FIG. 2E) by IFNγ/LPS in a tumor milieu. […] The SHP-1 and SHP-2 inhibitors TPI-1 and SHP099, respectively, was used at 1 μg/ml in assays.
# as §1
# In addition to TPI-1, several other SHP-1 inhibitors such as PTP inhibitor-I, PTP inhibitor-III, and recently reported vitamin E (9, 10) and phomoxanthone A and B (P×A and P×B) (11) were tested. Given that PKCθ modulates SHP-1 activity through phosphorylating Ser591 (12, 13), PKCθ inhibitor and activator were also tested in various assays.
# p-STAT1 and p-Erk1/2 = test: STAT1 and Erk1/2 phosphorylation in macrophages with cancer cell ligation; assay type: cell-based; conditions: IFNγ/LPS
# Method: as §2
# Macrophages with high SHP-1 activity in a tumor milieu diminish production of proinflammatory cytokines but produce high IL-10 (see FIG. 2D, blue bar) under stimulation of IFNγ/LPS. This reinforcement of immunosuppression was reversed by SHP-1 inhibition. […]
# [2] = system: MC38 colorectal carcinoma; test: TME analysis of MC38 colorectal carcinoma in mice; assay type: in vivo, murine
# Excerpt: FIGS. 8A-8E depict that SHP-1 inhibition combined with TLR agonists (αTLR) reprograms TME of MC38 colorectal carcinoma. FIG. 8A depicts MC38 tumor treatment scheme.
# [3] = system: KPC pancreatic ductal adenocarcinoma; test: TME analysis of KPC pancreatic ductal adenocarcinoma with tumor-focal RT; assay type: in vivo, murine; conditions: TPI-1 combined RT
# Excerpt: FIGS. 9A-9C depict that the inhibition of SHP-1 by TPI-1 combined with tumor-focal RT reprogram TME of KPC pancreatic ductal adenocarcinoma towards proinflammatory cancer elimination. FIG. 9A depicts treatment scheme and TME analyses on day 5. The table depicts the percentages of various populations within total CD45+ cells. The bar graph depicts the percentages of various populations within total cells.
# [4] = system: MC38 colorectal carcinoma; test: Study-2: multi-lesion MC38 colorectal carcinoma, efficacy; assay type: in vivo, mice; conditions: intermittent iSHP-1 with αTLR, or αTLR and αPD-L1
# Method: (§3) FIGS. 12A-12D depict that pulse-intermittent inhibition of SHP-1 (iSHP-1) combined with TLR agonists (αTLR) and/or anti-PD-L1 checkpoint inhibitor effectively treat multi-lesion MC38 colorectal carcinoma. FIG. 12A depicts the treatment scheme. Mice with bilateral MC38 tumors (s.c.) were treated for two days with TPI-1 and various combinations via i.p. or s.c. A 5-day intermittent period was given before the 2nd cycle of treatments to mice that had residue tumors. FIGS. 12B and 12C depict tumor control efficacies measured by tumor volume changes (FIG. 12B) and TME reprogramming, indicating increases in tumor killing immune populations while reduction of immunosuppression. FIG. 12D depicts acute adverse toxicity, measured by body weight, proteinuria, serum ALT level and splenomegaly.
# [5] = Study-2: acute adverse toxicity; assay type: in vivo, mice; conditions: intermittent iSHP-1 therapies
# Method: as §3
# LLC lung cancer = test: Study-3: iSHP-1 with RT and αPD-L1, LLC lung cancer; assay type: in vivo, mice; conditions: TPI-1 3 or 5 mg/kg i.p. every 3 days, right flank RT 8Gy-4Gy-2Gy, αPD-L1 100 μg
# Method: FIGS. 13A-13E depict pulse-intermittent SHP-1 inhibition (iSHP-1) combination with RT and αPD-L1 treating pancreatic cancer and lung cancer. FIG. 13A depicts experimental schemes. […] Concomitantly, the tumor at the right flank was treated with 8Gy X-ray radiation (RT). After two days of intermittent period, mice on day 4 were treated with the 2nd cycle TPI-1 (i.p.) of the same dose while RT reduced to 4Gy applied to the right flank tumor. The 3rd cycle (day 7) iSHP-1 combination with RT reduced to 2Gy. Anti-PD-L1 Ab (100 μg, i.p.) was given a day following TPI-1 plus RT. FIG. 13B depicts luminescent image tracing KPC-luc and LLC-luc tumor changes post treatment. FIG. 13C depicts record of tumor volume changes and animal survival up to post-treatment 45 days.
# Modalities & Dosing Strategy: i) iSHP-1—TPI-1, 3 or 5 mg/kg, i.p., 1× every 3 days. ii) Tumor focal RT: 8Gy-4Gy-2Gy, given to right flank simultaneously with iSHP-1. iii) αPD-L1: 100 μg, i.p., given a day after iSHP-1 plus RT
# solid tumors = test: Intermittent period after TPI-1 combined therapy in tumors; assay type: in vivo, murine; conditions: TPI-1 combined with TLR agonists or RT
# Excerpt: Furthermore, these analyses of the TME immune landscape changes following TPI-1 combined therapies informed our design of the pulse-intermittent SHP-1 inhibition strategy for metastatic solid tumors. […] Along with macrophage reduction, tumor-associated SHP-1 activities also dwindled, a change that ousted the necessity of continuous TPI-1 application. This “intermittent” period lasted 3-6 days, a length dependent on TPI-1 and TLR agonists/RT dosages, as well as tumor type and stage prior to treatment. […] Consistent with these changes, the tumors after the intermittent period were reverted to growth, unless another cycle of TPI-1 combined therapy was applied, which were again effectively suppressing tumors.
compound,measurement,setting,value
O=C1C=CC(=O)C(c2cc(Cl)ccc2Cl)=C1 [TPI-1],PTP activity diminished in macrophages,[1],> 70%
same,SHP-1 activity in macrophages (effect in words),SHP-1,potently inhibited SHP-1 activity at low concentrations
same,STAT-1 and Erk1/2 phosphorylation,p-STAT1 and p-Erk1/2,dose-dependently released cancer cell-imposed inhibition
same,intratumoral macrophages,[2]; TPI-1 and αTLR,marked reduction of intratumoral macrophages
same,TME reprogramming,[2]; TPI-1 combined with αTLR,"reduction of tumor cells, and increases in immune infiltration especially tumoricidal CD8 T cells, neutrophils (PMN) and NK cells, while reduction of macrophages, MDSC and Treg"
same,CD8 T cell expansion and p15E reactivity,[3],marked expansion of CD8 T cells with significant high frequency of reactivity to tumor-specific antigen p15E
same,intratumoral macrophage phenotype,[3],proinflammatory phenotype and increased antigen presentation capacity
same,immune cell infiltration in TME,[3]; day 5,"induced neutrophil (PMN) infiltration, NK cell increases and CD8 T cell expansion"
same,"tumor regression, combination",[4],effectively regressed multiple lesions of MC38 colorectal cancer
same,acute adverse toxicity,[5],did not incur acute adverse toxicity
same,tumor elimination incl. distal lesions,LLC lung cancer,effectively eliminating or repressing KPC pancreatic cancer and LLC lung cancer along with distal lesions
same,length of intermittent period with reduced macrophages and tumor growth restraint,solid tumors,3 to 6 days
